*1 amine or outer side, *2 acyl side, *3 side chain or, on linkers, in order; H or OH if unused. Where a SMILES comes first, the peptide text is derived from it. Bridges are numbered along the chain shown (N, C = ends). Triazole bridges read from a SMILES are 1,4-linked. [ ]: non-standard residue; d: D form. X1 = Cc1sc(C(=O)[C@@H]2CCCN2[*:2])cc1C1=C(c2cc(C(=O)[*:1])sc2C)CCC1; Orn(N3) = [N-]=[N+]=NCCC[C@H](N)C(=O)O; Aha = [N-]=[N+]=NCC[C@H](N)C(=O)O; hCys = N[C@@H](CCS)C(=O)O; Pra = C#CC[C@H](N)C(=O)O
Columns and labels:
[1] = molecular target: T1, Bos taurus trypsin 1 (T1) (Bos taurus, UniProt P00760); test: Trypsin inhibition, Ki by Lineweaver-Burk analysis; settings: for K i (closed) /K i (open): ratio of ring-closed to ring-open isomer, T1;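 on all read-outs here: trypsin activity followed by spectrophotometric hydrolysis kinetics of the chromogenic substrate BAPNA in Tris buffer, Ki obtained from double-reciprocal Lineweaver–Burk plots at several substrate concentrations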
T1 sequence (P00760 24-246): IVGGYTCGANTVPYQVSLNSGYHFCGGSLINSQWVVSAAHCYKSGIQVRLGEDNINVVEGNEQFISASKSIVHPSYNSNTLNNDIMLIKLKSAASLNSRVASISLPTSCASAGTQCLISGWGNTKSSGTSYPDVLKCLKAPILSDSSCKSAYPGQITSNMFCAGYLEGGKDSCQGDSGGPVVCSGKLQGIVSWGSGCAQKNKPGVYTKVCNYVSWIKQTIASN
Experimental: Protease inhibition assays
The inhibition of trypsin and α-chymotrypsin was investigated by two methods. First, the inhibition was determined at a fixed enzyme and substrate concentration, whereas the inhibitor concentration varied. By plotting the protease activity against an inhibitor’s concentration, IC50 (the half-maximal inhibitory concentration) was determined.
Lineweaver–Burk analysis (see below), the Ki values for all peptide inhibitors were determined with high accuracy.
All measurements were performed with p-nitroaniline-based chromogenic substrates (λabs = 405 nm) in 96-well microtiter plates using
EpochTM 2 microplate spectrophotometer. For trypsin measurements the Tris buffer (50 mM Tris-HCl, 25 mM CaCl2, 0.005% Tween®
For the measurements, a fresh 0.92 µM trypsin solution was prepared from the storage aliquot and kept on ice.
A stock solution of the substrate BAPNA (Nα-Benzoyl-DL-arginine 4-nitroanilide hydrochloride) at the concentration of 50 mM in
aqueous dimethyl sulfoxide (DMSO) (100 mg of BAPNA in 4.6 mL of DMSO:water mixture 1:1) was pre pared and stored at RT.
peptide solutions at the concentration of 100 µM, which was further diluted to 10, 1, or 0.1 µM if required, were prepared in Milli-Q®
deionized ultrapure water.
For the determination of IC50, a double dilution series of inhibit ors were prepared in a 96 -well plate (12 concentrations, two repeats
for each concentration, 200 µL of Tris buffer in each well). Subsequently, a trypsin solution (20 µL, 150 nM) was added to ea ch well
with the tested peptide and to the control row. Soluti ons in each well were intensely mixed using a multichannel pipette (from lower
concentration to higher). After a pre -incubation period (5 min), the substrate BAPNA was added to each well (20 µL, 25 mM).
solutions were thoroughly mixed with the multicha nnel pipette, and the kinetics of substrate hydrolysis was recorded with an interval
of 1 min between measurements over 20 min. The total volume in each well was 240 µL, final trypsin and BAPNA concentrations
were 12.5 nM and 2.08 mM, respectively. The mea n values of the two repeats of the slope of absorption vs. time curves were
calculated. The activities at different inhibitor concentrations were then calculated by taking the control curves’ slope val ues (no
inhibitor) as the 100% enzyme activity. The inh ibition activity IC 50 against α-chymotrypsin (α-chymotrypsin from bovine pancreas
type II) was measured in the same way except that a different substrate, Ac-EAPF-pNA (Ac-Glu-Ala-Pro-Phe-pNA), was used (20
Inhibitory constants Ki were determined by Lineweaver-Burk (LWB) double-reciprocal analysis according to a published protocol.[S5]
Briefly, a fresh inhibitor/enzyme mixture was prepared in a glass vial and distributed to 2x6 wells (200 µL in each well, enzyme
concentration after dilution 12 nM). An enzyme without an inhibitor was added to the control wells. Aliquots of varying substrate stock
solutions were added with a multichannel pipette to each well. For trypsin inhibition experiments, BAPNA (20 µL per well of 20, 22.7,
26, 29.8, 34, 40 mM) and for α-chymotrypsin Ac-EAPF-pNA (20 µL per well of 16, 12.48, 10, 8, 6.4, 5.44 mM) were used, respectively.
Well contents were thoroughly mixed using a multichannel pipette, and a plate reader was used to monitor the hydrolysis kinetics
(sampling interval of 1 min over 20 min).

trypsin = molecular target: T2, trypsin (Bos taurus, UniProt P00760); settings: for k H [M^−1 s^−1] (closed): pH 8.2
T2 sequence (P00760 24-246): T1 sequence (P00760 24-246)
Experimental: Analysis of the proteolytic stability
Proteolytic stability of the peptides was characterized by determining hydrolysis rates (kH) by the action of trypsin in a 50 mM Tris–
HCl buffer, pH 8.2, supplemented with 25 mM CaCl2 and 0.005% Tween®20 at 22°C. The peptides at a concentration of 50 μM were
mixed with trypsin (0.5 μM) in a 2 mL total volume. At selected time intervals, 70 μL samples of the mixture were taken, quenched
by addition 130 μL 2% aqueous formic acid, and immediately analyzed by analytical HPLC. The kH values were calculated from the
time-dependent data assuming zero-order kinetics (zero-order kinetics applies due to the high substrate/enzyme ratio of 100 to 1).
For the fitting the linear part of the hydrolysis curve was taken excluding the last time point in which the entire peptide inhibitor was
analogues could hydrolyze at two positions: at the Lys (P1 position) of the inhibitory loop and after the stabilizing loop’s arginine
residue (P4 position).[S6] The ultimate product (i.e., cleaved at both positions) had, therefore, a MALDI-TOF-MS detectable mass
The identity of each peak was confirmed by MALDI -TOF-MS. Detection – 220 nm, hydrolysis time is indicated at each chromatogram.

[2] = Photostationary state under UV irradiation / photoconversion; format: physicochemical; settings: deoxygenated water, 22 °C, continuous UV irradiation 320-400 nm; values with * by RP-HPLC
Experimental: Table S3 Photostationary states (PSS) for the studied peptides in deoxygenated water at 22 °C determined as the maximal conversion of the ring-open form to
ring-closed form under continuous UV irradiation (spectral range of 320-400 nm).
* As was determined by RP-HPLC analysis. […]

Structure (SMILES)	Ki ([1]; K i [nM] (open))	Ki ([1]; K i [nM] (closed))	k H (closed) /k H (open) (trypsin)	k H [M^−1 s^−1] (closed) (trypsin)	K i (closed) /K i (open) [1]	PSS, % (maximal conversion of ring-open to ring-closed form) [2] [%]
CC[C@H](C)[C@@H]1NC(=O)[C@@H]2CCCN2C(=O)[C@@H]2CCCN2C(=O)[C@H]([C@@H](C)CC)NC(=O)[C@H](CO)NC(=O)[C@H](CCCCN)NC(=O)[C@H]([C@@H](C)O)NC(=O)[C@@H]2CSSC[C@H](NC1=O)C(=O)N[C@@H](CCCNC(=N)N)C(=O)N1CCC[C@H]1C(=O)c1cc(c(C)s1)C1=C(CCC1)c1cc(sc1C)C(=O)N[C@@H](Cc1ccccc1)C(=O)N2 [Peptide S1i] (FCTKSIPPICR; disulfide 2-10; linker N-C via X1)	13.4 ± 1.4	–	–	–	–	–
CC[C@H](C)[C@@H]1NC(=O)[C@@H]2CCCN2C(=O)[C@@H]2CCCN2C(=O)[C@H]([C@@H](C)CC)NC(=O)[C@H](CO)NC(=O)[C@H](CCCCN)NC(=O)[C@H]([C@@H](C)O)NC(=O)[C@@H]2CSSC[C@H](NC1=O)C(=O)N[C@@H](Cc1ccccc1)C(=O)N1CCC[C@H]1C(=O)c1cc(c(C)s1)C1=C(CCC1)c1cc(sc1C)C(=O)N[C@@H](CCCNC(=N)N)C(=O)N2 [Peptide S1n] (RCTKSIPPICF; disulfide 2-10; linker N-C via X1)	4.9 ± 0.3	–	–	–	–	–
CC[C@H](C)[C@@H]1NC(=O)[C@@H]2CCCN2C(=O)[C@@H]2CCCN2C(=O)[C@H]([C@@H](C)CC)NC(=O)[C@H](CO)NC(=O)[C@H](CCCCN)NC(=O)[C@H]([C@@H](C)O)NC(=O)[C@H](C)NC(=O)c2cc(c(C)s2)C2=C(CCC2)c2cc(sc2C)C(=O)[C@@H]2CCCN2C(=O)[C@H](C)NC1=O [Peptide S3] (ATKSIPPIA; linker N-C via X1)	101 ± 9	–	–	–	–	–
CC[C@H](C)[C@@H]1NC(=O)[C@@H]2CCCN2C(=O)[C@@H]2CCCN2C(=O)[C@H]([C@@H](C)CC)NC(=O)[C@H](CO)NC(=O)[C@H](CCCCN)NC(=O)[C@H]([C@@H](C)O)NC(=O)c2cc(c(C)s2)C2=C(CCC2)c2cc(sc2C)C(=O)[C@@H]2CCCN2C1=O [Peptide S4] (TKSIPPI; linker N-C via X1)	22 ± 3	–	–	–	–	–
CC[C@H](C)[C@@H]1NC(=O)[C@@H]2CCCN2C(=O)[C@@H]2CCCN2C(=O)[C@H]([C@@H](C)CC)NC(=O)[C@H](CO)NC(=O)[C@H](CCCCN)NC(=O)[C@H]([C@@H](C)O)NC(=O)[C@@H]2CSSCC[C@H](NC1=O)C(=O)N[C@@H](CCCNC(=N)N)C(=O)N1CCC[C@H]1C(=O)c1cc(c(C)s1)C1=C(CCC1)c1cc(sc1C)C(=O)N[C@@H](Cc1ccccc1)C(=O)N2 [Peptide S5i] (FCTKSIPPI[hCys]R; disulfide 2-10; linker N-C via X1)	102 ± 14	182 ± 16	1.7	5.0±0.8×10^−3 M^−1 s^−1	–	–
CC[C@H](C)[C@@H]1NC(=O)[C@@H]2CCCN2C(=O)[C@@H]2CCCN2C(=O)[C@H]([C@@H](C)CC)NC(=O)[C@H](CO)NC(=O)[C@H](CCCCN)NC(=O)[C@H]([C@@H](C)O)NC(=O)[C@@H]2CSSCC[C@H](NC1=O)C(=O)N[C@@H](Cc1ccccc1)C(=O)N1CCC[C@H]1C(=O)c1cc(c(C)s1)C1=C(CCC1)c1cc(sc1C)C(=O)N[C@@H](CCCNC(=N)N)C(=O)N2 [Peptide S5n] (RCTKSIPPI[hCys]F; disulfide 2-10; linker N-C via X1)	95 ± 6	231 ± 14	13.6	3.4±0.5×10^−2 M^−1 s^−1	–	–
CC[C@H](C)[C@@H]1NC(=O)[C@@H]2CCCN2C(=O)[C@@H]2CCCN2C(=O)[C@H]([C@@H](C)CC)NC(=O)[C@H](CO)NC(=O)[C@H](CCCCN)NC(=O)[C@H]([C@@H](C)O)NC(=O)[C@@H]2Cc3cn(nn3)CC[C@H](NC1=O)C(=O)N[C@@H](CCCNC(=N)N)C(=O)N1CCC[C@H]1C(=O)c1cc(c(C)s1)C1=C(CCC1)c1cc(sc1C)C(=O)N[C@@H](Cc1ccccc1)C(=O)N2 [Peptide S6i] (F[Pra]TKSIPPI[Aha]R; triazole 2-10; linker N-C via X1)	441 ± 43	–	5.8	1.1±0.2×10^−1 M^−1 s^−1	17.5	39.6
CC[C@H](C)[C@@H]1NC(=O)[C@@H]2CCCN2C(=O)[C@@H]2CCCN2C(=O)[C@H]([C@@H](C)CC)NC(=O)[C@H](CO)NC(=O)[C@H](CCCCN)NC(=O)[C@H]([C@@H](C)O)NC(=O)[C@@H]2Cc3cn(nn3)CC[C@H](NC1=O)C(=O)N[C@@H](Cc1ccccc1)C(=O)N1CCC[C@H]1C(=O)c1cc(c(C)s1)C1=C(CCC1)c1cc(sc1C)C(=O)N[C@@H](CCCNC(=N)N)C(=O)N2 [Peptide S6n] (R[Pra]TKSIPPI[Aha]F; triazole 2-10; linker N-C via X1)	135 ± 8	–	3.7	2.5±0.8×10^−2 M^−1 s^−1	8.3	46.6
CC[C@H](C)[C@@H]1NC(=O)[C@@H]2CCCN2C(=O)[C@@H]2CCCN2C(=O)[C@H]([C@@H](C)CC)NC(=O)[C@H](CO)NC(=O)[C@H](CCCCN)NC(=O)[C@H]([C@@H](C)O)NC(=O)[C@@H]2Cc3cn(nn3)CCC[C@H](NC1=O)C(=O)N[C@@H](CCCNC(=N)N)C(=O)N1CCC[C@H]1C(=O)c1cc(c(C)s1)C1=C(CCC1)c1cc(sc1C)C(=O)N[C@@H](Cc1ccccc1)C(=O)N2 [Peptide S7i] (F[Pra]TKSIPPI[Orn(N3)]R; triazole 2-10; linker N-C via X1)	263 ± 30	7220 ± 360	73	5.5±1×10^−1 M^−1 s^−1	–	–
CC[C@H](C)[C@@H]1NC(=O)[C@@H]2CCCN2C(=O)[C@@H]2CCCN2C(=O)[C@H]([C@@H](C)CC)NC(=O)[C@H](CO)NC(=O)[C@H](CCCCN)NC(=O)[C@H]([C@@H](C)O)NC(=O)[C@@H]2Cc3cn(nn3)CCC[C@H](NC1=O)C(=O)N[C@@H](Cc1ccccc1)C(=O)N1CCC[C@H]1C(=O)c1cc(c(C)s1)C1=C(CCC1)c1cc(sc1C)C(=O)N[C@@H](CCCNC(=N)N)C(=O)N2 [Peptide S7n] (R[Pra]TKSIPPI[Orn(N3)]F; triazole 2-10; linker N-C via X1)	63.4 ± 4.4	2200 ± 214	30.5	6.1±1.2×10^−2 M^−1 s^−1	–	–
CC[C@H](C)[C@@H]1NC(=O)[C@@H]2CCCN2C(=O)[C@@H]2CCCN2C(=O)[C@H]([C@@H](C)CC)NC(=O)[C@H](CO)NC(=O)[C@H](CCCCN)NC(=O)[C@H]([C@@H](C)O)NC(=O)[C@@H]2CSSC[C@H](NC1=O)C(=O)N[C@@H](Cc1ccccc1)C(=O)N1CCC[C@H]1C(=O)c1cc(c(C)s1)C1=C(CCC1)c1cc(sc1C)C(=O)N[C@@H](C(C)C)C(=O)N[C@@H](CCCNC(=N)N)C(=O)N2 [Peptide S8n] (VRCTKSIPPICF; disulfide 3-11; linker N-C via X1)	5.2 ± 0.4	125 ± 8	4.1	5.3±1.4×10^−4 M^−1 s^−1	–	–
CC[C@H](C)[C@@H]1NC(=O)[C@@H]2CCCN2C(=O)[C@@H]2CCCN2C(=O)[C@H]([C@@H](C)CC)NC(=O)[C@H](CO)NC(=O)[C@H](CCCCN)NC(=O)[C@H]([C@@H](C)O)NC(=O)[C@@H]2CSSC[C@H](NC1=O)C(=O)N[C@@H](Cc1ccccc1)C(=O)N[C@@H](CC(C)C)C(=O)N1CCC[C@H]1C(=O)c1cc(c(C)s1)C1=C(CCC1)c1cc(sc1C)C(=O)N[C@@H](CCCNC(=N)N)C(=O)N2 [Peptide S9n] (RCTKSIPPICFL; disulfide 2-10; linker N-C via X1)	8.3 ± 0.6	55 ± 3.8	8.7	1.3±0.1×10^−3 M^−1 s^−1	–	–
CC[C@H](C)[C@@H]1NC(=O)[C@@H]2CCCN2C(=O)[C@@H]2CCCN2C(=O)[C@H]([C@@H](C)CC)NC(=O)[C@H](CO)NC(=O)[C@H](CCCCN)NC(=O)[C@H]([C@@H](C)O)NC(=O)[C@@H]2Cc3cn(nn3)CC[C@H](NC1=O)C(=O)N[C@@H](CCCNC(=N)N)C(=O)N[C@@H](CC(C)C)C(=O)N1CCC[C@H]1C(=O)c1cc(c(C)s1)C1=C(CCC1)c1cc(sc1C)C(=O)N[C@@H](C(C)C)C(=O)N[C@@H](Cc1ccccc1)C(=O)N2 [Peptide S11i] (VF[Pra]TKSIPPI[Aha]RL; triazole 3-11; linker N-C via X1)	1720 ± 130	–	3.3	9.1±1×10^−2 M^−1 s^−1	3.1	80.2
CC[C@H](C)[C@@H]1NC(=O)[C@@H]2CCCN2C(=O)[C@@H]2CCCN2C(=O)[C@H]([C@@H](C)CC)NC(=O)[C@H](CO)NC(=O)[C@H](CCCCN)NC(=O)[C@H]([C@@H](C)O)NC(=O)[C@@H]2Cc3cn(nn3)CCC[C@H](NC1=O)C(=O)N[C@@H](CCCNC(=N)N)C(=O)N[C@@H](CC(C)C)C(=O)N1CCC[C@H]1C(=O)c1cc(c(C)s1)C1=C(CCC1)c1cc(sc1C)C(=O)N[C@@H](C(C)C)C(=O)N[C@@H](Cc1ccccc1)C(=O)N2 [Peptide S12i] (VF[Pra]TKSIPPI[Orn(N3)]RL; triazole 3-11; linker N-C via X1)	2440 ± 215	–	3.0	4.2±0.4×10^−2 M^−1 s^−1	–	–

Source: publication PMC8519022, “Diarylethene‐Based Photoswitchable Inhibitors of Serine Proteases” (Angewandte Chemie (International Ed. in English), 2021)
